The text below walks through data of US20040235869A1, “Nucleoside analog inhibitors of reverse transcriptase” (priority 2003, published 2004).

Molecules are shown by their SMILES.

Series [1] concerns the target HIV reverse transcriptase (Human immunodeficiency virus type 1 group M subtype B, UniProt P04585). Kind of series: HIV reverse transcriptase inhibition primer extension experiment (incorporation of nucleoside triphosphates into DNA by RT, chain termination). The series is classed as biochemical. To be noted: triphosphate form; template SEQ ID NO:1, primer SEQ ID NO:2; terminated product 38 instead of 53 base pairs; FIG. 2. The text has this: For primer extension experiments (Example 3), some of the novel nucleoside analog inhibitors were converted to triphosphate form in vitro, such as occurs in mammalian cells by endogenous enzymes.
Once incorporated into the growing DNA strand, transcription is terminated because the nucleosides lack the necessary 3′ hydroxyl group.
The method is analogous to the Sanger sequencing. Specifically, in the presence of a template and four natural nucleotide triphosphates (dATP, dGTP, dCTP and dTTP), a radiolabeled primer is extended to full length by RT, as indicated by a single band on the sequencing gel. Addition of ddTTP, which competes with dTTP, results in the termination of primer extension at the positions of nucleotides opposite adenosine in the template strand. AZTTP, which is also a chain terminator, gives a similar result as ddTTP. If a compounds, e.g., (V) to (VII), in triphosphate form has a branched 3′-group that cannot be accommodated in the 3′-pocket of RT, the compound is not a substrate for RT. Therefore, it will be unable to compete with dTTP, resulting in a completed, extended product. […]
Template cagatagtcttcacgaggcaggtcgtcttgtcctggtActcgtttgcgttccg (SEQ ID NO:1) and primer […] […] With this template and primer, there is only one adenosine in the template to be read into the growing chain as a thymidine (capital and boldface in SEQ ID NO:1). […]

For series [2] the following is noted: taken with ddI (Videx or Videx EC); cited from earlier work.
The conditions of series [3]: 300 mg x 2/day; cited from earlier work.
The conditions of series [4]: nitrogen at the 3'-branched group; Hossain et al., 1993; Huang et al., 1995; cited from earlier work.

As to `Cc1cn([C@H]2C[C@H](N=[N+]=[N-])[C@@H](CO[P@](=O)(O)O[P@](=O)(O)OP(=O)(O)O)O2)c(=O)[nH]c1=O` [AZTTP, AZT-triphosphate], in series [1], the “chain termination of the primer extension opposite the only A in the template (substrate for RT)” value is on record as “chain terminators”.

Take `CC(C)OC(=O)OCOP(=O)(CO[C@H](C)Cn1cnc2c(N)ncnc21)OCOC(=O)OC(C)C` [Viread, tenofovir DF]: in series [2], the “increase of ddI levels in the blood” value is ≤ 60%, causing increased.

Consider `Nc1nc(NC2CC2)c2ncn([C@H]3C=C[C@@H](CO)C3)c2n1` [Ziagen, abacavir], for which the “Serious allergic reactions, share of patients” value in series [3] was “Serious allergic reactions in about 3-5% of patients”.

Take `Cc1cn([C@H]2CC[C@@H](COP(=O)(O)OP(=O)(O)OP(=O)(O)O)O2)c(=O)[nH]c1=O` [ddTTP]: in series [1], the “chain termination of the primer extension opposite the only A in the template (substrate for RT)” value is “chain terminators”.

For the molecule `Cc1cn([C@H]2CC([N+](=O)[O-])[C@@H](CO)O2)c(=O)[nH]c1=O` (some centres unmarked) [molecule (I)], the effectiveness in vivo entry in series [4] is on record as “ineffective in vivo”.
